The values that follow come from patent US20260085262A1, “ACQ FLUORESCENCE PROBE COMPOSITION, CMC DETERMINATION METHOD, STAIN CLEANING CONCENTRATION DETERMINATION METHOD, DETERGENT DISPENSING CONTROL METHOD, AND DETERGENT DISPENSING CONTROL SYSTEM” (GUANGZHOU BLUEMOON INDUSTRIAL CO., LTD., priority 2024, published 2026).

Read-outs that look alike come from different tables or passages of the source.

The conditions of data set [1]: solvent, cited from earlier work.
Data set [2] can be described thus: Hansen solubility parameters (HSP), δ difference and HSP distance Ra.
The conditions of data set [3]: document value; cited from earlier work.
Data set [4] in a line: cmc by fluorescence probe method, customized photoelectric detector (CD detector). It is filed as physicochemical. The following applies: aqueous solution of Supreme Biotechnology (Bright White) laundry detergent; label = solvent for probe. The protocol:
Here, the liquid to be tested is Supreme Biotechnology (Brilliant White) detergent solution (ZZLB), and the detector is a customized photoelectric detector (CD detector).
In addition, due to the use of the CUR-NMP single organic solvent composition system, the solvent addition amount in Table 6 can be considered equivalent to the addition amount of the probe solution. The cmc value is determined using the fitted line intersection method, i.e., according to the determination results of a fluorescence spectrophotometer, an appropriate wavelength is selected within the corresponding fluorescence emission peak range, and a fluorescence response value-concentration curve is plotted with detergent concentrations on the x-axis and fluorescence intensity on the y-axis. The plateau region and the rising region of the curve are fitted by linear regression, respectively, and the intersection point of two fitted lines is obtained. The surfactant concentration on the x-axis corresponding to the intersection point is the cmc concentration (measured value).
The fluorescence photoelectric detector used in the present invention includes any of the following: • 1) including excitation filter (430 nm), dichroic mirror, and emission filter (495 nm), light source: peak wavelength of 430 nm, waveband of 420 to 440 nm, working current: 0.02 A, working voltage: 5V, the acceptable wavelength range of detector of at least 480-510 nm; • 2) including excitation filter (550 nm), dichroic mirror, and emission filter (638 nm), light source: peak wavelength of 550 nm, waveband of 540 to 560 nm, working current: 0.02 A, working voltage: 5V, the acceptable wavelength range of detector of at least 620-650 nm.
Referring to Examples 1 and 3, Supreme Biotechnology (Brilliant White) detergent solution was prepared. […] Determination was carried out using a CD detector in the above two cases.

The nature of data set [5]: cmc of detergent solution by fluorescence probe method, fluorescence spectrophotometer (Example 1). The class given is physicochemical.
Setting [6] is: HSP distance between solvent and pyrene.
[7] abbreviates: HSP distance between solvent and rhodamine B.
Where [8] appears, read: total δ of solvent minus total δ of pyrene.
The mark [9] stands for this setting: total δ of solvent minus total δ of rhodamine B.
Setting [10] is: aqueous solution of Supreme Biotechnology (Bright White) laundry detergent, label = solvent for probe.
[11] abbreviates: aqueous solution of Supreme Biotechnology (Bright White) laundry detergent, label = solvent for probe (auxiliary agent).
Where [12] appears, read: HSP distance between solvent and curcumin (CUR).
The mark [13] stands for this setting: total δ of solvent minus total δ of curcumin (CUR).

`CC(O)CCO` (centres unmarked) [1,3-butanediol]: in data set [1], the Flash point is 121 °C and the Viscosity is given as 130.3 mPa · s. Moreover, the Viscosity in data set [1] (listed as 1,3-butanediol (1,3-BDO)) is reported as 130 mPa · s.

`CC(C)=O` [Acetone]: the Ra in data set [2] (setting [6]) is recorded as 16.806 (MPa)^1/2. In data set [2] (setting [7]), the Ra was 13.727 (MPa)^1/2. Also, in data set [2] (setting [8]), the δ difference is on record as −2.974 (MPa)^1/2. In data set [2] (setting [9]), the δ difference was −10.518 (MPa)^1/2. In addition, in data set [3], the “Dispersion δD” value is given as 15.5 (MPa)^1/2, the “Hydrogen bonding δH” value was 7 (MPa)^1/2, the “Polarity δH” value is listed as 10.4 (MPa)^1/2 and the “Total δ” value is listed as 19.935 (MPa)^1/2. In addition, in data set [1], the Flash point is −17.8 °C, the Viscosity is 0.316 mPa · s and the Volatility/Boiling point was 56 °C.

Take `CC#N` [Acetonitrile]: in data set [3], the “Dispersion δD” value is reported as 15.3 (MPa)^1/2, the “Hydrogen bonding δH” value is given as 6.1 (MPa)^1/2, the “Polarity δH” value is listed as 18 (MPa)^1/2 and the “Total δ” value is 24.399 (MPa)^1/2. Besides, in data set [1], the Flash point was 5.6 °C, the Viscosity is reported as 0.375 mPa · s and the Volatility/Boiling point was 82 °C.

For the compound `CCCCOC(=O)c1ccccc1C(=O)OCCCC` [Dibutyl phthalate], in data set [3], the “Dispersion δD” value is 17.8 (MPa)^1/2, the “Hydrogen bonding δH” value was 4.1 (MPa)^1/2, the “Polarity δH” value is recorded as 8.6 (MPa)^1/2 and the “Total δ” value is recorded as 20.189 (MPa)^1/2. In data set [1], the Flash point is 171 °C, the Viscosity is 9.72 mPa · s and the Volatility/Boiling point is 339 °C.

Take `CCOCCOCCO` [Diethylene glycol monoethyl ether (DGME), Diethylene glycol monoethyl ether]: in data set [4], the “cmc value, CUR, By Customized fluorescence photoelectric detector” value is recorded as 0.114 g/L and the “cmc value, NR, By Customized fluorescence photoelectric detector” value came out at 0.074 g/L. In addition, the “cmc value, NR, By Fluorescence spectrophotometer” value in data set [5] (setting [10]) came to 0.089 g/L. In data set [5] (setting [11]), the “cmc value, CUR, By Fluorescence spectrophotometer” value worked out at 0.086 g/L. The Ra in data set [2] (setting [12]) is recorded as 6.386 (MPa)^1/2. The Ra in data set [2] (setting [6]) is 16.995 (MPa)^1/2. Also, the Ra in data set [2] (setting [7]) is 10.489 (MPa)^1/2. Also, in data set [2] (setting [13]), the δ difference is on record as −0.382 (MPa)^1/2. In addition, the δ difference in data set [2] (setting [8]) is −0.712 (MPa)^1/2. Also, the δ difference in data set [2] (setting [9]) was −8.256 (MPa)^1/2. For the same compound, in data set [3], the “Dispersion δD” value is 16.1 (MPa)^1/2, the “Hydrogen bonding δH” value is 12.2 (MPa)^1/2, the “Polarity δH” value was 9.2 (MPa)^1/2 and the “Total δ” value is given as 22.197 (MPa)^1/2. Further, in data set [1], the Flash point is 94 °C, the Viscosity is 3.85 mPa · s and the Volatility/Boiling point is 202 °C.

As to `C[S+](C)[O-]` [Dimethyl sulfoxide], the Ra in data set [2] (setting [12]) was 13.383 (MPa)^1/2. The δ difference in data set [2] (setting [13]) is 4.096 (MPa)^1/2. Moreover, in data set [3], the “Dispersion δD” value was 18.4 (MPa)^1/2, the “Hydrogen bonding δH” value is recorded as 10.2 (MPa)^1/2, the “Polarity δH” value is given as 16.4 (MPa)^1/2 and the “Total δ” value is given as 26.675 (MPa)^1/2.

As for `CN(C)C=O` [Dimethylformamide (DMF), Dimethylformamide], in data set [3], the “Dispersion δD” value was 17.4 (MPa)^1/2, the “Hydrogen bonding δH” value is listed as 11.3 (MPa)^1/2, the “Polarity δH” value is listed as 13.7 (MPa)^1/2 and the “Total δ” value was 24.862 (MPa)^1/2. In data set [1], the Flash point is 58 °C and the Viscosity is 0.802 mPa · s.

Take `CCOCC` [Ether]: the Ra in data set [2] (setting [6]) is 16.064 (MPa)^1/2. For the same compound, in data set [2] (setting [7]), the Ra is given as 20.633 (MPa)^1/2. Moreover, the δ difference in data set [2] (setting [8]) is listed as −7.423 (MPa)^1/2. The δ difference in data set [2] (setting [9]) is −14.967 (MPa)^1/2. In data set [3], the “Dispersion δD” value is 14.5 (MPa)^1/2, the “Hydrogen bonding δH” value was 4.6 (MPa)^1/2, the “Polarity δH” value is listed as 2.9 (MPa)^1/2 and the “Total δ” value was 15.486 (MPa)^1/2.

With `CCOC(=O)CO` [Ethyl glycolate], the Ra in data set [2] (setting [12]) is listed as 14.383 (MPa)^1/2. Besides, the δ difference in data set [2] (setting [13]) is given as 2.225 (MPa)^1/2. Besides, in data set [1], the Flash point was 62 °C and the Volatility/Boiling point is 158 °C.

Regarding `OCCOc1ccccc1` [Ethylene glycol monophenyl ether], in data set [2] (setting [12]), the Ra is on record as 2.858 (MPa)^1/2. Also, the δ difference in data set [2] (setting [13]) is −0.207 (MPa)^1/2. In addition, in data set [3], the “Dispersion δD” value is 17.8 (MPa)^1/2, the “Hydrogen bonding δH” value is reported as 12.2 (MPa)^1/2, the “Polarity δH” value is recorded as 5.9 (MPa)^1/2 and the “Total δ” value is given as 22.372 (MPa)^1/2. Moreover, in data set [1], the Flash point was 121 °C, the Viscosity is reported as 30.5 mPa · s and the Volatility/Boiling point is 245 °C.

For `OCCO` [Ethylene glycol], the “cmc value, CUR, By Customized fluorescence photoelectric detector” value in data set [4] is 0.121 g/L. Besides, in data set [5], the “cmc value, CUR, By Fluorescence spectrophotometer” value came to 0.102 g/L and the “cmc value, NR, By Fluorescence spectrophotometer” value is given as 0.091 g/L.

As for `OCC(O)CO` [Glycerol], in data set [2] (setting [12]), the Ra is 17.614 (MPa)^1/2. Moreover, the δ difference in data set [2] (setting [13]) was 13.583 (MPa)^1/2. For the same compound, in data set [3], the “Dispersion δD” value is recorded as 17.4 (MPa)^1/2, the “Hydrogen bonding δH” value is listed as 29.3 (MPa)^1/2, the “Polarity δH” value is on record as 12.1 (MPa)^1/2 and the “Total δ” value is 36.162 (MPa)^1/2.

For `CCN1CCCC1=O` [N-ethylpyrrolidone (NEP), N-ethylpyrrolidone], in data set [2] (setting [13]), the δ difference is 0.159 (MPa)^1/2. Further, in data set [3], the “Dispersion δD” value is 18 (MPa)^1/2, the “Hydrogen bonding δH” value was 7 (MPa)^1/2, the “Polarity δH” value is reported as 12 (MPa)^1/2 and the “Total δ” value was 22.738 (MPa)^1/2. Also, in data set [1], the Flash point is 76.1 °C and the Volatility/Boiling point was 218 °C.

Turning to `Cc1ccccc1` [Toluene], in data set [3], the “Dispersion δD” value is listed as 18 (MPa)^1/2, the “Hydrogen bonding δH” value is listed as 2 (MPa)^1/2 and the “Polarity δH” value is recorded as 1.4 (MPa)^1/2. In data set [1], the Flash point was 4.4 °C and the Viscosity is on record as 0.587 mPa · s.

Consider “Polyethylene glycol 200 [Polyethylene glycol 200 (PEG200)]”, for which, in data set [4], the “cmc value, CUR, By Customized fluorescence photoelectric detector” value stood at 0.113 g/L and the “cmc value, NR, By Customized fluorescence photoelectric detector” value is given as 0.069 g/L. Besides, the “cmc value, NR, By Fluorescence spectrophotometer” value in data set [5] (setting [10]) amounted to 0.062 g/L. Besides, the “cmc value, CUR, By Fluorescence spectrophotometer” value in data set [5] (setting [11]) worked out at 0.094 g/L. Moreover, in data set [1], the Flash point was greater than 100 °C and the Viscosity result is recorded as “(22-23) mPa · s”.

As for Water, in data set [3], the “Dispersion δD” value is on record as 15.5 (MPa)^1/2, the “Hydrogen bonding δH” value is on record as 42.3 (MPa)^1/2, the “Polarity δH” value is recorded as 16 (MPa)^1/2 and the “Total δ” value is listed as 47.807 (MPa)^1/2. Also, the Viscosity in data set [1] was 1.002 mPa · s.
